According to patent publication US12616753B2, “HSP70 inhibitors and methods of using same” (THE WISTAR INSTITUTE, priority 2020, dated 2026):

Assays:
[1] = system: MC38 tumors; assay: Syngeneic model of MC38 tumors in C57Bl/6 mice; type: in vivo, mouse; conditions: 10 mg/kg every 48 hours
Procedure: FIGS. 5A-5F show AP-4-139B is efficacious against CRC in an immunocompetent model, and causes immune cell recruitment. FIGS. 5A-5B: Mouse CRC cell lines, MC38 (FIG. 5A) and CT26 (FIG. 5B), were plated at a density of 1,000 cells per well in 96-well plates. The next day, cells were treated with the indicated inhibitors for 72 hours. Cells were then subjected to the Alamar Blue cell viability assays. Shown are representative IC50 values of an average of six technical replicates and two biological replicates. FIG. 5C: Mouse CRC cell lines MC38 and CT26 were treated with 10 μM AP-4-139B for 24 or 48 hours and immunoblotted for HSP70, p53, AKT, Cleaved Lamin A (CLA), Cleaved Caspase 3, MRPS14, and GAPDH (loading control). The doublet detected for HSP70 is seen in other murine cell lines, and may represent a degradation product or post-translational modification. FIG. 5D: 1×10^6 MC38 cells were injected subcutaneously into the right flank of 6-8 week old male C57Bl/6 mice. Once tumors reached an approximate volume of 50 mm^3, mice were separated randomly into two groups: vehicle vs. AP-4-139B. Mice were treated with 10 mg/kg AP-4-139B every 48 hours. All mice were euthanized 20 days after the start of treatment. Tumor volumes were recorded using digital calipers and using the formula v=length×width^2×0.52. *** p<0.001. n=15 mice per group.
FIG. 5E: Immunohistochemistry (IHC) analysis of MC38 tumors treated with AP-4-139B. Shown are representative images (4-6 random fields of view per condition from four independent tumors) of CD8^+ T cells and Granzyme B (marker for activated immune cells). Respective IgG antibody was used as the negative control. Scale bars=100 μm. FIG. 5F: Quantification of FIG. 5E * p<0.05; ** p<0.01.
FIG. 9A: Body weights of mice injected with HT-29 tumor xenografts. Weights were measured at the start of the treatment to determine mouse toxicity. n.s. not significant, n=15 mice per group. FIG. 9B: Immunohistochemistry (IHC) analysis of MC38 tumors treated with AP-4-139B. Shown are representative images (4-6 random fields of view per condition from four independent tumors) of CD4^+ T cells. Respective IgG antibody was used as the negative control. Scale bars=100 μm. FIG. 9C: Quantification of FIG. 9B.
All studies were carried out in accordance with the recommendations in the Guide for the Care and Use of Laboratory Animals of the National Institutes of Health (NIH). All protocols were approved by The Wistar Institute Institutional Animal Care and Use Committee (IACUC). […] Tumor volumes were measured using digital calipers and tumor volume was calculated using the formula: volume=(length×width^2)×0.52. All mice were monitored daily for signs of pain or distress.

[2] = system: 1205Lu and HT-29 tumor cell lines; assay: Seahorse XF Cell Mito Stress Test, tumor cell lines; type: cell-based, human; conditions: 500 nM (sublethal), 24 hours
Procedure: FIG. 2A: IMR90 cells (non-transformed fibroblasts), 1205Lu (melanoma), and HT-29 (CRC) cancer cells were treated with sub-lethal doses (500 nM) of the HSP70 inhibitors PET-16 (positive control) or AP-4-139B for 24 hours. Cells were then subjected to the Seahorse Mito Stress Test Assay. Injections were Oligomycin (1 μM, line A), FCPP (0.5-1 μM, line B), and Rotenone/Antimycin A (1 μM, line C). Each graphical representation indicates the mean±standard deviation of a minimum of 5 technical replicates. […] Each experiment was performed in triplicate and independently repeated twice. FIGS. 2B-2D: Basal Oxygen Consumption Rate (ORC) (FIG. 2B), Maximal OCR (FIG. 2C), and ATP production (FIG. 2D) were analyzed in IMR90 fibroblasts, non-transformed colonic epithelial cells (CCD 841 CoN), 1205Lu melanoma cells and HT-29 CRC cells, in the presence or absence of 500 nM HSP70 inhibitors or negative control (VY-3-277). All experiments were performed in triplicate, with each group containing 5-6 technical replicates. ** p<0.01, *** p<0.001, n.s. not significant.
The XF Cell Mito Stress Test was performed. […] For extracellular ATP release, ATP was measured using the CellTiter-Glo Kit (Promega catalog #G7570). […] 10 μl of CellTiter-Glo Reaction Mix was then mixed with 10 μl of culture media; the luminescence signal was detected using a luminometer.

SMILES	CD4+ T cells in tumors (IHC) [1]	infiltrating CD8+ T cells in tumors (IHC) [1]	weight loss of mice during treatment [1]	efficacy in syngeneic MC38 tumors ([1]; p<0.001)	basal oxygen consumption rate and ATP production in tumor cell lines [2]
c1ccc(-c2cn3nc(CCCCCC[P+](c4ccccc4)(c4ccccc4)c4ccccc4)sc3n2)cc1 [AP-4-139B, Triphenyl(6-(6-phenylimidazo[2,1-b][1,3,4]thiadiazol-2-yl)hexyl)phosphonium bromide]	increase in CD4+ T cells	large percentage of infiltrating CD8^+ T cells	no evidence of weight loss	significant efficacy as a single agent	reduced basal oxygen consumption rate and ATP production
C(#C[P+](c1ccccc1)(c1ccccc1)c1ccccc1)c1ccccc1 [PET-16, Triphenyl(phenylethynyl)phosphonium bromide, reference compound]					minimal activity
